Reference: patent US20260124192A1, “COMPOUNDS, COMPOSITIONS, AND METHODS OF TREATING RNA VIRAL INFECTIONS” (priority 2024, published 2026)

Columns and labels:
SARS-CoV-2 USA-WA1/2020 [1] = assay: SARS-CoV-2 immunofluorescence (IF) assay, HeLa-ACE2 (Method 1); format: cell-based; details: Severe acute respiratory syndrome coronavirus 2, HeLa-ACE2, SARS-CoV-2 USA-WA1/2020, 2% FBS
[2] = tested on: SARS-CoV-2 Alpha (B.1.1.7); assay: SARS-CoV-2 IF assay, HeLa-ACE2 (Method 1); format: cell-based; details: 2% FBS
13 viruses and variants = assay: organism not typed; format: cell-based; details: read-out: antiviral activity (best EC50 per virus/strain/variant)
[3] = tested on: SARS-CoV-2 Beta (B.1.351); assay: SARS-CoV-2 IF assay, HeLa-ACE2 (Method 1); format: cell-based; details: 2% FBS
[4] = tested on: SARS-CoV-2 Delta (B.1.617.2); assay: SARS-CoV-2 IF assay, HeLa-ACE2 (Method 1); format: cell-based; details: 2% FBS
[5] = tested on: MCF7 wild-type cell lines; assay: MCF7 growth inhibition assay (Cell Titre Glo 2.0); format: cell-based; details: Homo sapiens, MCF7, 120 h, read-out: MCF-7 IC50 (μM)
Method: The growth inhibition properties of inhibitors on MCF7 wild-type cell lines were evaluated using the Cell Titre Glo 2.0 cell viability reagent. The assay utilized 384-well black clear bottom plates with 20 μl of MCF7 wild-type cell suspension mixed with reference/test compounds and 20 μl of Cell Titre Glo 2.0 reagent. Cells were seeded at a density of 1000 cells/well in DMEM High Glucose culture media+10% Fetal Bovine Serum (FBS). Staurosporine and Camptothecin served as positive controls for confirming cytotoxicity at a concentration of 30 μM, and vehicle control of 1% DMSO was used to standardize conditions across all test points. The assay and culture media both contained 1% DMSO. Assays were conducted in duplicate for each concentration of the test compounds. The incubation period for the assay was set at 120 hours, after which growth inhibition was assessed. Using a multi-mode reader, the assay readout was based on luminescence measured in Relative Light Units (RLUs). The viability luminescence signal was monitored continually from the same wells over an extended period, allowing for detailed analysis of cell viability. Measurements were taken using an integration time ranging from 0.25 to 1 second across plates designated for various time points.
Cells were maintained and seeded in 384 […] plates, maintaining 1000 cells/well. Seeded plates were incubated at 37° C., 5% CO2 for 16-18 hours to ensure optimal cell adherence and growth. Post-incubation, reference, and test compounds were added carefully to the wells for further processing. Plates were incubated again at 37° C., 5% CO2 for 120 hours (5 days) to allow compound effects. This was followed by the addition of CTG reagent as per the kit's instruction protocol for 30 minutes and RLU data to be recorded. Post plate read data to be analyzed using GraphPad Prism for software IC50 value generation.
Next, the NCEs were tested for selective estrogen regulation modulation activity by using a growth inhibition assay. The assay is performed on MCF7 cells, which are derived from a hormone-dependent breast cancer that stops growing upon estrogen receptor inhibition. […] Staurosporine and Camptothecin served as positive controls for cytotoxicity and 1% DMSO as the vehicle control.

SARS-CoV-2 USA-WA1/2020 [6] = assay: SARS-CoV-2 CPE assay, Vero 76 (Method 2); format: cell-based; details: Severe acute respiratory syndrome coronavirus 2, 2% FBS
[7] = XTT cell viability assay, Huh-luc/neo-ET; format: cell-based; details: human, Huh-luc/neo-ET cells, with HCV replicon assay, not converted, read-out: CC50
Method: (§1) Twenty-four hours after seeding the cells, the cell culture supernatant was removed from each well and replaced with 175 μL fresh complete medium minus G418. Test compounds were evaluated at a high-test concentration of 10 μM and five serial half-logarithmic dilutions in three biological replicates. In three biological replicates, Sofosbuvir was evaluated in parallel at a high-test concentration of 1 μM and five serial half-logarithmic dilutions. Compounds were first serially diluted in DMSO to 400× of each final in-well concentration. An intermediate 8× solution was prepared in a complete medium and then added to the cells in a volume of 25 μL per well. A complete medium containing an equal percentage of DMSO (v/v) was added to vehicle-treated control cells. The final DMSO concentration was 0.25% (v/v) for all samples. The cells were incubated for an additional 72 hours at 37° C./5% CO2, then HCV replication was measured by luciferase activity and cell viability was assessed in parallel using an XTT colorimetric assay.
(§2) Huh-luc/neo-ET cell viability was measured at 72 hours after treatment using the tetrazolium dye XTT (2,3-bis(2-methoxy-4-nitro-5-sulfophenyI)-5[(phenylamino)carbonyl]-2H-tetrazolium hydroxide). Mitochondrial enzymes of metabolically active cells metabolize XTT-tetrazolium to a soluble formazan product. XTT solution was prepared fresh at 1 mg/mL in DMEM. Phenazine methosulfate (PMS) solution was prepared at 0.15 mg/mL in PBS and stored in the dark at −20° C. An XTT/PMS stock was prepared immediately before use by adding 40 μL of PMS per ml of XTT solution. Fifty microliters (50 μL) XTT/PMS were added per well, and the cells were incubated for 4 hours at 37° C. The cell culture plates were then sealed with adhesive plate sealers and shaken gently or inverted several times to mix the soluble formazan product. The formazan product was measured spectrophotometrically by absorbance at 450/650 nm on a Vmax plate reader (Molecular Devices). The raw data in Softmax Pro 5.4.2 software was imported into Microsoft Excel for further analysis. Data are presented as absorbance values (450/650 nm) or the percentage of viable cells relative to vehicle-treated control (mean+1—standard deviation, n=3 biological replicates from one independent experiment).

Huh-luc/neo-ET cells = assay: XTT cell viability assay, Huh-luc/neo-ET; format: cell-based; details: XTT, 72 hours, read-out: HCV 1b - TC50
Method: as §1, §2

in vitro [8] = details: African green monkey, CC50 (μM), Vero 76; with CPE assays (SARS-CoV-2 WA1, Delta); not converted for FBS
FBS = assay: Protein binding by rapid equilibrium dialysis (RED) in FBS; details: 1 μM, n = 3
in vitro [9] = details: dog, CC50 (μM), MDCK; with Influenza B CPE assays
Cytotoxicity, XTT, MRC-5 = details: human

Cc1c(-c2ccc(O)cc2)n(Cc2ccc(OCCN3CCCCC3)cc2)c2ccc(O)cc12 [Pipendoxifene]
EC50 (SARS-CoV-2 USA-WA1/2020 [1]): 0.675 µM | EC50 ([2]; SARS-CoV-2 Alpha (B.1.1.7)): 1.2 µM | EC50 ([2]; Severe acute respiratory syndrome coronavirus 2, HeLa-ACE2, SARS-CoV-2 Alpha (B.1.1.7)): 0.83 µM | EC50 (13 viruses and variants): < 10 µM | EC50 ([3]; SARS-CoV-2 Beta (B.1.351)): 0.668 µM | EC50 ([3]; Severe acute respiratory syndrome coronavirus 2, HeLa-ACE2, SARS-CoV-2 Beta (B.1.351)): 1.05 µM | EC50 ([4]; SARS-CoV-2 Delta (B.1.617.2)): 0.677 µM | EC50 ([4]; Severe acute respiratory syndrome coronavirus 2, HeLa-ACE2, SARS-CoV-2 Delta (B.1.617.2)): 0.74 µM | IC50 [5]: 0.00064 µM | EC50 (SARS-CoV-2 USA-WA1/2020 [6]): 2.6 µM | CC50 at 72 h [7]: > 10 µM | CC50 (Huh-luc/neo-ET cells): > 10 µM | CC50 (in vitro [8]): 2.9 µM | Mean unbound (Fub, %) (FBS; 2% heat inactivated FBS): 25.0% | Mean unbound (Fub, %) (FBS; 10% heat inactivated FBS): 5.0% | Mean unbound (Fub, %) (FBS; 10% not inactivated FBS): 4.7% | CC50 (in vitro [9]): 9.8 µM | CC50 at 6 days (Cytotoxicity, XTT, MRC-5): > 1 µM
